Target: Human TRPA1 (Homo sapiens, UniProt O75762)
Assay: Assay 1: In vitro cellular testing of TRPA1 modulation (CHO-TREx, Fluo-3 calcium fluorescence, AITC agonist)
Assay type: cell-based
Parameters: expressed in transfected cells; host or cells: CHO-TREx cells (Invitrogen), vector pcDNA4/TO
Conditions: CHO-TREx cells expressing human TRPA1; Fluo-3 fluorescence (FLIPR/Tetra); agonist 15 μM allyl isothiocyanate (AITC); 30 minute antagonist incubation
How it was run: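 Tetracycline-induced CHO-TREx cells stably expressing human TRPA1, loaded with 4 μM Fluo-3 AM, preincubated 30 min with compound (serial dilution typically from 10 μM, three-fold steps) in HEPES saline pH 7.4. Fluorescence change over 3 min after 15 μM AITC; IC50 from Hill fit versus no-antagonist and 10 μM ruthenium red controls.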

Chain of Human TRPA1 (O75762 whole entry): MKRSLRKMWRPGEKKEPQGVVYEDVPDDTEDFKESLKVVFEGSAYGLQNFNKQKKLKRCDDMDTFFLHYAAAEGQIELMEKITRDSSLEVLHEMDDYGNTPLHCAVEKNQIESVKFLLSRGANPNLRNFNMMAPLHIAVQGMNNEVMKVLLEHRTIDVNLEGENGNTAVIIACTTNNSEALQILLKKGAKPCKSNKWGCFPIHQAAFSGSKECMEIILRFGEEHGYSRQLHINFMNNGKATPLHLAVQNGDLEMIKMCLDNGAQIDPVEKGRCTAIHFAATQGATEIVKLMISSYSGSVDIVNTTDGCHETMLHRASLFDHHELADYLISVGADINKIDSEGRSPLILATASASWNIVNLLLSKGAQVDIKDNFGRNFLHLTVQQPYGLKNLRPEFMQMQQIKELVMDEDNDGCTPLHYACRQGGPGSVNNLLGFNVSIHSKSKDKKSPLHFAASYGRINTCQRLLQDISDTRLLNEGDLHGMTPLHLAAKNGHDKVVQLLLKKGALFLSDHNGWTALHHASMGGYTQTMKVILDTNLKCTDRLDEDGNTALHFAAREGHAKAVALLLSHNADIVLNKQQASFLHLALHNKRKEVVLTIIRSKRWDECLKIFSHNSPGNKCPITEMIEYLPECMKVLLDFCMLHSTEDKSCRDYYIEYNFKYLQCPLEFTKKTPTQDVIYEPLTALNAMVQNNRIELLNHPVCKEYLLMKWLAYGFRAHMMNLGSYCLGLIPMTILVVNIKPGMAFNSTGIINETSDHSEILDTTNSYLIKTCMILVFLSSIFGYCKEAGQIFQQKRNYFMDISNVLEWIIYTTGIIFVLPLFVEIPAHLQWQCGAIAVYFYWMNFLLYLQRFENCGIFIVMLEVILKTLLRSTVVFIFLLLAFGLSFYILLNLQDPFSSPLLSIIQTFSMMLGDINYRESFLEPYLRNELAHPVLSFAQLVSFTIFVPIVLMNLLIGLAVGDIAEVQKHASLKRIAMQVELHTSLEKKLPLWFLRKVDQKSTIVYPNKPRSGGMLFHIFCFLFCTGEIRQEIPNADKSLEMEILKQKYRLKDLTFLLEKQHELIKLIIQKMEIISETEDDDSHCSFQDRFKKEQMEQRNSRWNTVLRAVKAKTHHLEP

IC50 [nM] | SMILES
6 | CC1CCCN1c1nc(CNC(=O)[C@@H]2CCCN2S(=O)(=O)c2ccc(Cl)s2)cc(-c2ccc(C(F)(F)F)cc2)n1 (stereo partly drawn) [Example 48, 1-(5-Chloro-thiophene-2-sulfonyl)-pyrrolidine-2S-carboxylic acid [2-(2-methyl-pyrrolidin-1-yl)-6-(4-trifluoromethyl-phenyl)-pyrimidin-4-ylmethyl]-amide]
15 | CCOc1nc(CNC(=O)[C@@H]2CCCN2S(=O)(=O)c2ccc(Cl)s2)cc(-c2ccc(C(F)(F)F)cc2)n1 [Example 49, 1-(5-Chloro-thiophene-2-sulfonyl)-pyrrolidine-2S-carboxylic acid [2-ethoxy-6-(4-trifluoromethyl-phenyl)-pyrimidin-4-ylmethyl]-amide]
36 | O=C(NCc1cc(-c2ccc(C(F)(F)F)cc2)nc(N2CCN(Cc3ccccc3Cl)CC2)n1)[C@@H]1CCCN1S(=O)(=O)c1ccc(F)cc1 [Example 50, 1-(4-Fluoro-benzenesulfonyl)-pyrrolidine-2S-carboxylic acid [2-[4-(2-chloro-benzyl)-piperazin-1-yl]-6-(4-trifluoromethyl-phenyl)-pyrimidin-4-ylmethyl]-amide]
148 | O=C(NCc1cc(-c2ccc(C(F)(F)F)cc2)nc(N2CCN(Cc3ccccc3OC(F)(F)F)CC2)n1)[C@@H]1CCCN1S(=O)(=O)c1ccc(F)cc1 [Example 51, 1-(4-Fluoro-benzenesulfonyl)-pyrrolidine-2S-carboxylic acid [2-[4-(2-trifluoromethoxy-benzyl)-piperazin-1-yl]-6-(4-trifluoromethyl-phenyl)-pyrimidin-4-ylmethyl]-amide]
13 | CCc1ccccc1CN1CCN(c2nc(CNC(=O)[C@@H]3CCCN3S(=O)(=O)c3ccc(F)cc3)cc(-c3ccc(C(F)(F)F)cc3)n2)CC1 [Example 52, 1-(4-Fluoro-benzenesulfonyl)-pyrrolidine-2S-carboxylic acid [2-[4-(2-ethyl-benzyl)-piperazin-1-yl]-6-(4-trifluoromethyl-phenyl)-pyrimidin-4-ylmethyl]-amide]
426 | CC(=O)N(C)C1CCN(c2nc(CNC(=O)[C@@H]3CCCN3S(=O)(=O)c3ccc(Cl)s3)cc(-c3ccc(C(F)(F)F)cc3)n2)C1 (stereo partly drawn) [Example 53, 1-(5-Chloro-thiophene-2-sulfonyl)-pyrrolidine-2S-carboxylic acid [2-[3-(acetyl-methyl-amino)-pyrrolidin-1-yl]-6-(4-trifluoromethyl-phenyl)-pyrimidin-4-ylmethyl]-amide]
1070 | CCN(CC)C1CCN(c2nc(CNC(=O)[C@@H]3CCCN3S(=O)(=O)c3ccc(Cl)s3)cc(-c3ccc(C(F)(F)F)cc3)n2)C1 (stereo partly drawn) [Example 54, 1-(5-Chloro-thiophene-2-sulfonyl)-pyrrolidine-2S-carboxylic acid [2-(3-diethylamino-pyrrolidin-1-yl)-6-(4-trifluoromethyl-phenyl)-pyrimidin-4-ylmethyl]-amide]
2550 | CC(C)N1CCC(CN(C)c2nc(CNC(=O)[C@@H]3CCCN3S(=O)(=O)c3ccc(Cl)s3)cc(-c3ccc(C(F)(F)F)cc3)n2)CC1 [Example 55, 1-(5-Chloro-thiophene-2S-sulfonyl)-pyrrolidine-2S-carboxylic acid [2-[(1-isopropyl-piperidin-4-ylmethyl)-methyl-amino]-6-(4-trifluoromethyl-phenyl)-pyrimidin-4-ylmethyl]-amide]
51 | CC(C)CN1CCN(c2nc(CNC(=O)[C@@H]3C=CCN3S(=O)(=O)c3ccc(Cl)s3)cc(-c3ccc(C(F)(F)F)cc3)n2)CC1 [Example 56, 1-(5-Chloro-thiophene-2-sulfonyl)-2,5-dihydro-1H-pyrrole-2S-carboxylic acid [2-(4-isobutyl-piperazin-1-yl)-6-(4-trifluoromethyl-phenyl)-pyrimidin-4-ylmethyl]-amide]
194 | CC(C)CN1CCN(c2nc(CNC(=O)[C@@H]3CC(F)(F)CN3S(=O)(=O)c3ccc(Cl)s3)cc(-c3ccc(C(F)(F)F)cc3)n2)CC1 [Example 57, 1-(5-Chloro-thiophene-2-sulfonyl)-4,4-difluoro-pyrrolidine-2S-carboxylic acid [2-(4-isobutyl-piperazin-1-yl)-6-(4-trifluoromethyl-phenyl)-pyrimidin-4-ylmethyl]-amide]
5 | O=C(NCc1cc(-c2ccc(C(F)(F)F)cc2)nc(OCC(F)(F)F)n1)[C@@H]1CCCN1S(=O)(=O)c1ccc(Cl)s1 [Example 58, 1-(5-Chloro-thiophene-2-sulfonyl)-pyrrolidine-2S-carboxylic acid [2-(2,2,2-trifluoro-ethoxy)-6-(4-trifluoromethyl-phenyl)-pyrimidin-4-ylmethyl]-amide]
81 | CN(C)c1nc(CNC(=O)[C@@H]2CC(F)(F)CN2S(=O)(=O)c2ccc(Cl)s2)cc(-c2ccc(C(F)(F)F)cc2)n1 [Example 59]
6170 | CC1CCCN1c1nc(CNC(=O)[C@@H]2CC(F)(F)CN2S(=O)(=O)c2ccc(Cl)s2)cc(-c2ccc(C(F)(F)F)cc2)n1 (stereo partly drawn) [Example 60, 1-(5-Chloro-thiophene-2-sulfonyl)-4,4-difluoro-pyrrolidine-2S-carboxylic acid [2-(2-methyl-pyrrolidin-1-yl)-6-(4-trifluoromethyl-phenyl)-pyrimidin-4-ylmethyl]-amide]
105 | O=C(NCc1cc(-c2ccc(C(F)(F)F)cc2)nc(OCC(F)(F)F)n1)[C@@H]1CC(F)(F)CN1S(=O)(=O)c1ccc(Cl)s1 [Example 61, 1-(5-Chloro-thiophene-2-sulfonyl)-4,4-difluoro-pyrrolidine-2S-carboxylic acid [2-(2,2,2-trifluoro-ethoxy)-6-(4-trifluoromethyl-phenyl)-pyrimidin-4-ylmethyl]-amide]
3210 | O=C(NCc1cc(-c2ccc(C(F)(F)F)cc2)nc(OCCN2CCCC2)n1)[C@@H]1CCCN1S(=O)(=O)c1ccc(Cl)s1 [Example 62, 1-(5-Chloro-thiophene-2-sulfonyl)-pyrrolidine-2S-carboxylic acid [2-(2-pyrrolidin-1-yl-ethoxy)-6-(4-trifluoromethyl-phenyl)-pyrimidin-4-ylmethyl]-amide]
78 | O=C(NCc1cc(-c2ccc(C(F)(F)F)cc2)nc(OCCN2CCCCC2)n1)[C@@H]1CCCN1S(=O)(=O)c1ccc(Cl)s1 [Example 63, 1-(5-Chloro-thiophene-2-sulfonyl)-pyrrolidine-2S-carboxylic acid [2-(2-piperidin-1-yl-ethoxy)-6-(4-trifluoromethyl-phenyl)-pyrimidin-4-ylmethyl]-amide]
234 | O=C(NCc1cc(-c2ccc(C(F)(F)F)cc2)nc(OCCN2CCOCC2)n1)[C@@H]1CCCN1S(=O)(=O)c1ccc(Cl)s1 [Example 64, 1-(5-Chloro-thiophene-2-sulfonyl)-pyrrolidine-2S-carboxylic acid [2-(2-morpholin-4-yl-ethoxy)-6-(4-trifluoromethyl-phenyl)-pyrimidin-4-ylmethyl]-amide]
15 | O=C(NCc1cccc(-c2ccc(C(F)(F)F)cc2)c1)[C@@H]1CCCN1S(=O)(=O)c1ccc(F)cc1 [Example 65, 1-(4-Fluorobenzenesulfonyl)-pyrrolidine-2S-carboxylic acid (4′-trifluoromethylbiphenyl-3-ylmethyl)-amide]
253 | O=C(NCc1cccc(-c2cccc(C(F)(F)F)c2)c1)[C@@H]1CCCN1S(=O)(=O)c1ccc(F)cc1 [Example 66, 1-(4-Fluorobenzenesulfonyl)-pyrrolidine-2S-carboxylic acid (3′-trifluoromethylbiphenyl-3-ylmethyl)-amide]
515 | O=C(NCc1cccc(-c2ccccc2C(F)(F)F)c1)[C@@H]1CCCN1S(=O)(=O)c1ccc(F)cc1 [Example 67, 1-(4-Fluorobenzenesulfonyl)-pyrrolidine-2S-carboxylic acid (2′-trifluoromethylbiphenyl-3-ylmethyl)-amide]
26 | O=C(NCc1cccc(-c2ccc(OC(F)(F)F)cc2)c1)[C@@H]1CCCN1S(=O)(=O)c1ccc(F)cc1 [Example 68, 1-(4-Fluorobenzenesulfonyl)-pyrrolidine-2S-carboxylic acid (4′-trifluoromethoxybiphenyl-3-ylmethyl)-amide]
181 | O=C(NCc1cccc(-c2cccc(OC(F)(F)F)c2)c1)[C@@H]1CCCN1S(=O)(=O)c1ccc(F)cc1 [Example 69, 1-(4-Fluorobenzenesulfonyl)-pyrrolidine-2S-carboxylic acid (3′-trifluoromethoxybiphenyl-3-ylmethyl)-amide]
746 | O=C(NCc1cccc(-c2ccccc2OC(F)(F)F)c1)[C@@H]1CCCN1S(=O)(=O)c1ccc(F)cc1 [Example 70, 1-(4-Fluorobenzenesulfonyl)-pyrrolidine-2S-carboxylic acid (2′-trifluoromethoxybiphenyl-3-ylmethyl)-amide]
14 | O=C(NCc1cccc(-c2ccc(C(F)(F)F)c(F)c2)c1)[C@@H]1CCCN1S(=O)(=O)c1ccc(F)cc1 [Example 71, 1-(4-Fluorobenzenesulfonyl)-pyrrolidine-2S-carboxylic acid (3′-fluoro-4′-trifluoromethylbiphenyl-3-ylmethyl)-amide]
17 | O=C(NCc1cccc(-c2ccc(C(F)(F)F)c(Cl)c2)c1)[C@@H]1CCCN1S(=O)(=O)c1ccc(F)cc1 [Example 72, 1-(4-Fluoro-benzenesulfonyl)-pyrrolidine-2S-carboxylic acid (3′-chloro-4′-trifluoromethyl-biphenyl-3-ylmethyl)-amide]
4 | O=C(NCc1cccc(-c2ccc(OC(F)(F)F)c(F)c2)c1)[C@@H]1CCCN1S(=O)(=O)c1ccc(F)cc1 [Example 73, 1-(4-Fluorobenzenesulfonyl)-pyrrolidine-2S-carboxylic acid (3′-fluoro-4′-trifluoromethoxybiphenyl-3-ylmethyl)-amide]
